Test results from ChEMBL document CHEMBL1157539, “Thousands of chemical starting points for antimalarial lead identification” (Nature, 2010).

What follows are compounds tested on Plasmodium falciparum (assay: GSK_TCMDC: Inhibition of Plasmodium falciparum 3D7 in whole erythrocytes, using parasite LDH activity as an index of growth.). Details: Plasmodium falciparum, 3D7.
Assay type: functional, organism-based
`CCN1CCC(N(CCCCCCCCc2ccc(C(F)(F)F)cc2)C(=O)Cn2c(CCc3cccc(F)c3F)cc(=O)c3ccccc32)CC1` showed an XC50 of 1.2 µM.
`O=C(NCCCCCN1CCC(c2ccc(O)cc2)CC1)c1ccc(-c2ccccc2)cc1` showed an XC50 of 0.929 µM.
With `CN1CCN(Cc2nc(-c3ccc4c(Nc5ccc(F)c(O)c5)ccnc4c3)cs2)CC1` the XC50 was 0.171 µM.
`COc1ccc(-c2cccc(NC(=O)c3ccc(C#N)cc3)c2)cc1CNC(C)C` showed an XC50 of 0.808 µM.
With `Nc1ccc2nc(C=Cc3ccc(Cl)cc3)[nH]c2c1` the XC50 was 0.941 µM.
Work on `COc1cc2ccccc2c(CNCCCCCCNCc2c(OC)c(OC)cc3ccccc23)c1OC` yielded an XC50 of 1.11 µM.
`N#Cc1cccc(CN2CCCN(Cc3ccc(C(=O)Nc4ccc(Cl)cc4)cc3)CC2)c1` showed an XC50 of 0.882 µM.
With `CC(=Nc1ccc(Cl)c(Cl)c1)N(C)C` the XC50 was 0.54 µM.
`Nc1nccc2ccc(-c3cccnc3)cc12` was tested, and the XC50 was 0.419 µM.
Compound `CC(=O)c1cc(N2CCOCC2)ccc1N` has an XC50 of 0.913 µM.
`CC(=O)N(C)C1CCN(Cc2cccc(-c3ccc(-c4nc5cc(F)ccc5[nH]4)cc3)c2)C1` (configuration not stated) gave an XC50 of 0.957 µM.
In the case of `CCCCn1c(C(C)Oc2ccc(Cl)cc2Cl)nc2cc(S(N)(=O)=O)ccc21` (configuration not stated), the XC50 is reported as 0.707 µM.
With `CC(C)[C@H](NC(=O)c1ccc(O)c(-c2ccc(Cl)c(Cl)c2)c1)C(=O)NCCN1CCOCC1` the XC50 was 0.911 µM.
For `CC(=O)Nc1ncc(C(=O)Nc2cccc(-c3ccc(-c4nc5cccc(C)c5[nH]4)cc3)c2)s1`, the XC50 was 0.643 µM.
Compound `COc1cccc(-c2ccc3ccnc(N)c3c2)c1` has an XC50 of 0.408 µM.
`COc1ccc(C)c(Nc2ccnc(Nc3cccc(-c4nc5ccccc5[nH]4)c3)n2)c1` gave an XC50 of 0.716 µM.
In the case of `CC(C)(C)c1cc(C(=O)Nc2cccnc2)cc(C(=O)Nc2cccnc2)c1`, the XC50 is reported as 0.761 µM.
Compound `Cc1cc(=NN=CC=Cc2ccccc2)c2ccc(F)cc2[nH]1` has an XC50 of 0.59 µM.
For `CCC(NC[C@@H](O)[C@H](Cc1ccccc1)NC(=O)c1cc(C2CCCC2)cc(N2CCCC2=O)c1)c1cccc(Cl)c1` (some centres not stated), the XC50 was 0.0352 µM.
For `O=C(/C=C/c1ccc(Cl)c(Cl)c1)NCCCCCN1CCC(C(=O)Nc2ccc(Cl)cc2)CC1`, the XC50 was 0.776 µM.
In the case of `CC(Cc1ccc(CN(CC(N)=O)Cc2ccc(CC(C)NCCc3cccc(Cl)c3)cc2)cc1)NCCc1cccc(Cl)c1` (configuration not stated), the XC50 is reported as 0.665 µM.
`N#Cc1ccc(-c2cnc3ccc(NCc4ccc(S(N)(=O)=O)cc4)nn23)cc1` gave an XC50 of 0.785 µM.
Work on `COC(=O)c1c(NC(=O)c2cccc(C(F)(F)F)c2)sc2c1CCN(Cc1ccccc1)C2` yielded an XC50 of 1.34 µM.
`CC(=O)c1ccc2c(c1)C(NC(=O)c1cccc(Cl)c1Cl)C(CO)C(C)(C)O2` (configuration not stated) gave an XC50 of 0.687 µM.
In the case of `Cc1sc2cc(Cl)cc(Cl)c2c1S(=O)(=O)Nc1ccc2nccc(N3CCNCC3)c2c1`, the XC50 is reported as 0.124 µM.
For `COc1ccc(CNC2CCN(C)CC2)cc1-c1ccc(S(=O)(=O)NC2CCC2)c(F)c1`, the XC50 was 0.84 µM.
For `CC(=O)Oc1cc(C(=O)Nc2ccc(Cl)cc2)cc2ccccc12`, the XC50 was 0.856 µM.
Work on `COc1ccc2ccccc2c1C=NNc1ccnc2cc(Cl)ccc12` yielded an XC50 of 0.615 µM.
`COc1ccc(-c2ccc(NC(=O)c3cccc(Cl)c3)cc2)cc1CN1CCC(O)CC1` gave an XC50 of 0.712 µM.
With `COc1ccc(CCn2c(C3CCCCC3)nc3oc4ccccc4c(=O)c3c2=O)cc1` the XC50 was 0.952 µM.
Work on `CC1(C)NC(N)=NC(=N)N1OCc1ccc2ccccc2c1CON1C(=N)N=C(N)NC1(C)C` yielded an XC50 of 0.663 µM.
Compound `COc1ccc(Cn2c(SCc3ccc(C)cc3)nc3cc(OC)c(OC)cc3c2=N)cc1Cl` has an XC50 of 0.977 µM.
Work on `CC1CN(c2ccc(NC(=O)c3ccsc3)cc2C(=O)N2CCN(Cc3ccc(C(C)(C)C)cc3)CC2)CC(C)O1` (configuration not stated) yielded an XC50 of 0.866 µM.
Work on `O=C(NCCN1CCCC1)c1ccc(-c2ccc(-c3nc4cc(C(F)(F)F)ccc4[nH]3)s2)cc1` yielded an XC50 of 0.752 µM.
`Cc1c(C(=O)NCc2ccncc2)sc2nc(-c3cccc([N+](=O)[O-])c3)cn12` gave an XC50 of 0.913 µM.
`Cc1ccc(CNC(=N)NC(=O)c2nc(Cl)c(NCc3ccc(Cl)cc3)nc2N)c(C)c1` gave an XC50 of 0.167 µM.
`NC(=O)c1cccc(-n2ccc3cc(CNC4Cc5ccccc5C4)ccc32)c1` gave an XC50 of 1.13 µM.
`Oc1ccc2[nH]cc(C3=CCN(Cc4ccccc4)CC3)c2c1` was tested, and the XC50 was 0.983 µM.
`CC(C)(C)COC(=O)c1ccc(NC(=O)N[C@@H](Cc2ccc(O)cc2)C(=O)NC2CCN(Cc3ccc(O)cc3)C2)cc1` (some centres not stated) showed an XC50 of 0.668 µM.
Work on `O=C(/C=C/c1ccc(-c2nc3ccc(Cl)cc3[nH]2)cc1)NC1CCN(Cc2ccccc2)CC1` yielded an XC50 of 0.61 µM.
For `O=S(=O)(NCCN1CCCC1)c1ccc(-c2ccc(CNCc3ccc(F)cc3)cc2)cc1`, the XC50 was 0.794 µM.
`O=C(Nc1cccc(-c2cc(-c3c(Cl)cccc3Cl)no2)c1)c1cnc2ccccc2c1` gave an XC50 of 1.1 µM.
With `CCNc1cc(C(=O)N[C@@H](Cc2ccccc2)[C@H](O)CNC2CCC(F)(F)CC2)c(F)c(N2CCCCS2(=O)=O)c1` the XC50 was 0.212 µM.
With `Nc1nc(N)c2c(ccn2Cc2cc3c(cc2Cl)OCO3)n1` the XC50 was 0.765 µM.
Work on `Cn1c(C2CC3CCC(C2)N3CC2CCC(NC(=O)/C=C/c3ccc(Cl)c(Cl)c3)CC2)nc2ccccc21` (configuration not stated) yielded an XC50 of 0.563 µM.
`Cc1ccc(NC(=O)c2ccc(CN3CCCN(Cc4cccc(O)c4)CC3)cc2)cc1C` showed an XC50 of 0.864 µM.
In the case of `CCCc1ccc2c(c1O)CCC(N(CCC)CCC)C2` (configuration not stated), the XC50 is reported as 0.886 µM.
`CCCCNC(=O)[C@@H](NC(=O)c1ccc(O)c(-c2ccc(Cl)c(Cl)c2)c1)C(C)C` showed an XC50 of 0.23 µM.
`O=C(/C=C/c1ccc(Cl)c(Cl)c1)NCCCCCN1CCCN(C(=O)Nc2ccc([N+](=O)[O-])cc2)CC1` showed an XC50 of 0.615 µM.
`Cc1cccc2nc(-c3cccc(-c4ccc(CNCCNC(=O)c5ccnn5C)cc4)c3)[nH]c12` gave an XC50 of 0.167 µM.
`FC(F)(F)c1ccc2c(NCCNc3ccnc4cc(C(F)(F)F)ccc34)ccnc2c1` showed an XC50 of 0.0327 µM.
`O=C(NC(c1ccc(Cl)cc1)c1ccc2cccnc2c1O)c1ccccc1` (configuration not stated) was tested, and the XC50 was 0.558 µM.
`CCC(ON1C(N)=NC(N)=NC1(C)C)c1ccccc1` (configuration not stated) gave an XC50 of 0.0335 µM.
`CN1CCCN(Cc2cccc(-c3cccc(NS(=O)(=O)c4cccc5cccnc45)c3)c2)CC1` showed an XC50 of 0.764 µM.
In the case of `COc1cc2nc(C)nc(Nc3cccc(Br)c3)c2cc1OC`, the XC50 is reported as 0.356 µM.
`Cn1nc(-c2cccc(CN[C@@H]3CCc4ccc(O)cc43)c2)c2cnc(NCCCN3CCCC3)nc21` showed an XC50 of 0.831 µM.
In the case of `O=S(=O)(Nc1cccc(CCN2CCCCC2CCN2CCCC2)c1)c1ccc2ccccc2c1` (configuration not stated), the XC50 is reported as 1.07 µM.
`S=C(NCCc1ccc(Cl)cc1)N1CCC(CN2CCC(c3c[nH]c4ccccc34)CC2)CC1` gave an XC50 of 1 µM.
With `COc1ccc2nccc(N3CCN(CCNCc4ccc5c(n4)NC(=O)CS5)CC3)c2c1` the XC50 was 0.95 µM.
In the case of `CNc1ccc(CNCc2cccc(-c3ccc(-c4nc5cccc(C)c5[nH]4)s3)c2)cc1`, the XC50 is reported as 0.987 µM.
`N#Cc1ccc2[nH]c(-c3cc(-c4cccc(F)c4)cnc3N)nc2c1` gave an XC50 of 0.193 µM.
`COc1cc2nc(NCc3ccccc3)nc(NCc3ccccc3)c2cc1OC` gave an XC50 of 0.151 µM.
Compound `CCOC(=O)CCCCOc1c(OC)cc(Cc2cnc(N)nc2N)cc1OC` has an XC50 of 0.0299 µM.
Compound `N#Cc1ccc2c(c1)CN(CCC1CCC(NC(=O)c3cc4cnccc4[nH]3)CC1)CC2` (configuration not stated) has an XC50 of 0.801 µM.
Work on `COc1ccc(Nc2nccc(N3CCC(NC(=O)c4cccc(NC(C)=O)c4)C3)n2)cc1` (configuration not stated) yielded an XC50 of 0.994 µM.
`Cc1cc(=NN=Cc2ccc(F)cc2)c2cccc(C)c2[nH]1` gave an XC50 of 0.779 µM.
In the case of `CCNc1cc(C(=O)N[C@@H](Cc2ccccc2)[C@H](O)CNCCc2ccccc2)cc(N2CCCC2=O)c1`, the XC50 is reported as 0.844 µM.
`CC(C)CNC(=O)CN1C(=O)C(c2ccccc2)(c2ccccc2)N=C1N` was tested, and the XC50 was 0.815 µM.
For `Cc1cccc2nc(-c3cccc(-c4ccc(NC(=O)Cc5ccc[n+]([O-])c5)cc4)c3)[nH]c12`, the XC50 was 0.627 µM.
`CCC(C)CN1C(=O)C(c2ccccc2)(c2ccccc2)N=C1N` (configuration not stated) gave an XC50 of 0.712 µM.
`S=C(NCCCCCN1CCC(c2c[nH]c3ccccc23)CC1)Nc1cccc(I)c1` gave an XC50 of 0.845 µM.
In the case of `O=C(c1cc(-c2cccs2)n[nH]1)N1CCN(S(=O)(=O)c2ccc(Cl)cc2)CC1`, the XC50 is reported as 0.292 µM.
With `COC(=O)c1cccc(CNCc2ccc(-c3ccc(-c4nc5ccccc5[nH]4)s3)cc2)c1` the XC50 was 0.289 µM.
With `O=C(NC1CCN(Cc2ccccc2)CC1)c1cc(-c2cccnc2)nc2ccc(Cl)cc12` the XC50 was 0.759 µM.
`CCc1c[nH]c2c(N3CCCS3(=O)=O)cc(C(=O)N[C@@H](Cc3ccccc3)[C@H](O)CNC(C)(C)c3cccc(C(F)(F)F)c3)cc12` gave an XC50 of 0.228 µM.
For `CC1(C)[C@H]2CC[C@@H](CNc3nc(NCCc4c[nH]cn4)nc(Nc4ccc(Oc5ccccc5)cc4)n3)[C@@H]1C2`, the XC50 was 0.672 µM.
`Cc1ccc(-c2nnc(Nc3ccc(C(=O)N4CCCCC4)cc3)c3ccccc23)cc1S(=O)(=O)NCC1CCCO1` (configuration not stated) showed an XC50 of 0.709 µM.
`O=C(NC(=O)c1ccccc1)NC1CCN(c2ccnc3cc(Cl)ccc23)C1` (configuration not stated) showed an XC50 of 0.584 µM.
Work on `O=C(/C=C/c1cccc2ccccc12)NCCCCCN1CCC(c2c[nH]c3ccccc23)CC1` yielded an XC50 of 1.14 µM.
With `O=S(=O)(c1cc(Cl)c(Cl)cc1Cl)N1CCCCC(c2ccc(C(F)(F)F)cc2)=N1` the XC50 was 0.205 µM.
With `Cc1nc2ccccn2c1C1(O)C(=O)Nc2c(Cl)cc(Cl)cc21` (configuration not stated) the XC50 was 1.59 µM.
For `COc1ccc2nccc([C@@H](O)CN3CCC(NCc4ccc5cccc(O)c5n4)CC3)c2c1`, the XC50 was 1.13 µM.
Compound `CN1CCCC(CN2CCN(Cc3ccc(-c4cccc(-c5nc6cc(F)ccc6[nH]5)c4)cc3)CC2)C1` (configuration not stated) has an XC50 of 0.184 µM.
With `CC(=O)N1N=C(c2ccc(Cl)cc2)Sc2c1nc(C1CCCCC1)n2C(C)=O` the XC50 was 0.249 µM.
`COc1ccc(OCC(=O)Nc2cc(-c3nc4ccccc4[nH]3)ccc2Cl)cc1` showed an XC50 of 0.903 µM.
For `Cc1cccc2nc(-c3cccc(-c4cccc(C(=O)NCc5nccn5C)c4)c3)[nH]c12`, the XC50 was 0.528 µM.
For `COc1ccc(C2C(C(=O)Nc3ccc4c(c3)OCO4)c3cc(OC)c(OC)cc3C(=O)N2C)cc1` (configuration not stated), the XC50 was 1.04 µM.
Compound `Cc1oc(-c2cccc(Oc3ccccc3)c2)nc1CN(Cc1cnn(C)c1)C(C)C` has an XC50 of 1.09 µM.
`Cc1cccc2nc(-c3cccc(-c4ccc(NC(=O)Nc5ccc(F)c(F)c5F)cc4)c3)[nH]c12` gave an XC50 of 0.168 µM.
For `Cc1nc(-c2cccc(Nc3nccc(NCC(O)c4ccc(C(F)(F)F)cc4)n3)c2)cs1` (configuration not stated), the XC50 was 0.511 µM.
In the case of `CN1CCN(c2ccnc3ccc(NC(=O)Nc4cccc(C#N)c4)cc23)CC1`, the XC50 is reported as 0.799 µM.
Compound `COc1cc2ccccc2cc1CCNCCCCNCCc1cc2ccccc2cc1OC` has an XC50 of 0.403 µM.
Compound `O=C(Nc1ccc(Cl)cc1)Nc1ccc(-c2cccc(-c3nc4cc(F)ccc4[nH]3)c2)cc1` has an XC50 of 0.292 µM.
`O=C(Nc1cccc(CN2CCCN(Cc3ccc(F)cc3)CC2)c1)c1cc2ccccc2s1` was tested, and the XC50 was 0.794 µM.
Work on `O=C(Nc1ccc(Cl)cc1)c1ccc(S(=O)(=O)NCC2CCN(CC3CCCCC3)CC2)cc1` yielded an XC50 of 0.857 µM.
With `CCOC(=O)C1=C(C)NC2=C(C(=O)CC(C)(C)C2)C1c1ccc(Cl)cc1` (configuration not stated) the XC50 was 0.923 µM.
For `COc1cc(OCCCN(C)Cc2ccc(OC)c(OC)c2)ccc1NC(=O)c1cccc2c(O)c3cccc(F)c3nc12`, the XC50 was 0.891 µM.
